Results as given in patent publication US8802597B2, “Herbicidal pyrimidines” (E I du Pont de Nemours and Company, priority 2003, dated 2014).
Like-named read-outs stand apart in the source and are kept apart here.

What was measured:
Assay in all cases: Test C pre/postemergence
Format in all cases: in vivo
[1] = tested on: morningglory (Ipomoea coccinea); settings: Ipomoea, pre-emergence, Preemergence, read-out: Plant response rating, Morningglory
Summary of the method: (§1)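 We sprayed seeded pots preemergence and 2–18 cm seedlings postemergence with test chemicals in a non-phytotoxic solvent mixture including surfactant. Greenhouse plants were visually compared with untreated controls at 12 to 14 days and scored 0 (no effect) to 100 (complete control).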

[2] = tested on: kochia (Kochia scoparia); settings: Bassia scoparia; for pest or weed control at 62 g/ha: 62 g ai/ha; for pest or weed control at 125 g/ha: 125 g ai/ha; for pest or weed control at 250 g/ha: 250 g ai/ha; for pest or weed control at 500 g/ha: 500 g ai/ha
Summary of the method: as §1

[3] = tested on: corn (Zea mays); settings: Zea mays; for Corn plant response rating (crop injury, 0 = no effect, 100 = complete kill) at 62 g/ha: 62 g ai/ha; for Corn plant response rating (crop injury, 0 = no effect, 100 = complete kill) at 125 g/ha: 125 g ai/ha; for Corn plant response rating (crop injury, 0 = no effect, 100 = complete kill) at 250 g/ha: 250 g ai/ha; for Corn plant response rating (crop injury, 0 = no effect, 100 = complete kill) at 500 g/ha: 500 g ai/ha
Summary of the method: as §1

[4] = tested on: Surinam grass (Brachiaria decumbens); settings: Urochloa decumbens; for pest or weed control at 125 g/ha: 125 g ai/ha; for pest or weed control at 500 g/ha: 500 g ai/ha; for pest or weed control at 62 g/ha: 62 g ai/ha; for pest or weed control at 250 g/ha: 250 g ai/ha
Summary of the method: as §1

[5] = tested on: cocklebur (Xanthium strumarium); settings: Xanthium strumarium; for pest or weed control at 62 g/ha: 62 g ai/ha; for pest or weed control at 125 g/ha: 125 g ai/ha; for pest or weed control at 250 g/ha: 250 g ai/ha; for pest or weed control at 500 g/ha: 500 g ai/ha
Summary of the method: as §1

[6] = tested on: crabgrass (Digitaria sanguinalis); settings: Digitaria sanguinalis; for pest or weed control at 62 g/ha: 62 g ai/ha; for pest or weed control at 125 g/ha: 125 g ai/ha; for pest or weed control at 250 g/ha: 250 g ai/ha; for pest or weed control at 500 g/ha: 500 g ai/ha
Summary of the method: as §1

[7] = post-emergence, Postemergence, scale 0 to 100 (0 no effect, 100 complete control), read-out: Kochia plant response rating
[8] = post-emergence, Postemergence, scale 0 to 100, read-out: Plant response rating, Kochia
[9] = pre-emergence, Preemergence, scale 0 to 100, read-out: Plant response rating, Kochia
[10] = post-emergence, Postemergence, scale 0 to 100 (0 no effect, 100 complete control), read-out: Corn plant response rating
[11] = post-emergence, Postemergence, scale 0 to 100
[12] = pre-emergence, Preemergence, scale 0 to 100
[13] = post-emergence, Postemergence, scale 0 to 100 (0 no effect, 100 complete control), read-out: Surinam Grass plant response rating
[14] = post-emergence, Postemergence, scale 0 to 100, read-out: Plant response rating, Surinam Grass
[15] = pre-emergence, Preemergence, scale 0 to 100, read-out: Plant response rating, Surinam Grass
[16] = post-emergence, Postemergence, scale 0 to 100 (0 no effect, 100 complete control), read-out: Cocklebur plant response rating
[17] = post-emergence, Postemergence, scale 0 to 100, read-out: Plant response rating, Cocklebur
[18] = pre-emergence, Preemergence, scale 0 to 100, read-out: Plant response rating, Cocklebur
[19] = post-emergence, Postemergence, scale 0 to 100 (0 no effect, 100 complete control), read-out: Crabgrass plant response rating
[20] = post-emergence, Postemergence, scale 0 to 100, read-out: Plant response rating, Crabgrass
[21] = pre-emergence, Preemergence, scale 0 to 100, read-out: Plant response rating, Crabgrass

CNc1nc(C2CC2)nc(C(=O)OC)c1Br [Compound 5]
pest or weed control at 62 g/ha ([1]; 62 g ai/ha, scale 0 to 100, 0 no effect, 100 complete control): 50%
pest or weed control at 125 g/ha ([1]; 125 g ai/ha, scale 0 to 100): 80%
pest or weed control at 250 g/ha ([1]; 250 g ai/ha, scale 0 to 100): 90%
pest or weed control at 500 g/ha ([1]; 500 g ai/ha, scale 0 to 100): 100%
pest or weed control at 62 g/ha [2, 7]: 100%
pest or weed control at 125 g/ha [2, 7]: 100%
pest or weed control at 250 g/ha [2, 8]: 100%
pest or weed control at 500 g/ha [2, 8]: 100%
pest or weed control at 62 g/ha ([2]; pre-emergence, Preemergence, scale 0 to 100, 0 no effect, 100 complete control, read-out: Plant response rating, Kochia): 80%
pest or weed control at 125 g/ha [2, 9]: 95%
pest or weed control at 250 g/ha [2, 9]: 100%
pest or weed control at 500 g/ha [2, 9]: 100%
Corn plant response rating (crop injury, 0 = no effect, 100 = complete kill) at 62 g/ha [3, 10]: 10%
Corn plant response rating (crop injury, 0 = no effect, 100 = complete kill) at 125 g/ha [3, 10]: 40%
Corn plant response rating (crop injury, 0 = no effect, 100 = complete kill) at 250 g/ha [3, 11]: 40%
Corn plant response rating (crop injury, 0 = no effect, 100 = complete kill) at 500 g/ha [3, 11]: 45%
Corn plant response rating (crop injury, 0 = no effect, 100 = complete kill) at 62 g/ha ([3]; pre-emergence, Preemergence, scale 0 to 100, 0 no effect, 100 complete control, read-out: Plant response rating, Corn): 5%
Corn plant response rating (crop injury, 0 = no effect, 100 = complete kill) at 125 g/ha ([3]; pre-emergence, Preemergence, scale 0 to 100, read-out: Plant response rating, Corn): 5%
Corn plant response rating (crop injury, 0 = no effect, 100 = complete kill) at 250 g/ha [3, 12]: 20%
Corn plant response rating (crop injury, 0 = no effect, 100 = complete kill) at 500 g/ha [3, 12]: 50%
pest or weed control at 125 g/ha [4, 13]: 20%
pest or weed control at 500 g/ha [4, 14]: 70%
pest or weed control at 62 g/ha [4, 13]: 0%
pest or weed control at 250 g/ha [4, 14]: 30%
pest or weed control at 62 g/ha ([4]; pre-emergence, Preemergence, scale 0 to 100, 0 no effect, 100 complete control, read-out: Plant response rating, Surinam Grass): 0%
pest or weed control at 125 g/ha [4, 15]: 0%
pest or weed control at 250 g/ha [4, 15]: 0%
pest or weed control at 500 g/ha [4, 15]: 0%
pest or weed control at 62 g/ha [5, 16]: 80%
pest or weed control at 125 g/ha [5, 16]: 95%
pest or weed control at 250 g/ha [5, 17]: 100%
pest or weed control at 500 g/ha [5, 17]: 100%
pest or weed control at 62 g/ha ([5]; pre-emergence, Preemergence, scale 0 to 100, 0 no effect, 100 complete control, read-out: Plant response rating, Cocklebur): 10%
pest or weed control at 125 g/ha [5, 18]: 90%
pest or weed control at 250 g/ha [5, 18]: 100%
pest or weed control at 500 g/ha [5, 18]: 100%
pest or weed control at 62 g/ha [6, 19]: 40%
pest or weed control at 125 g/ha [6, 19]: 50%
pest or weed control at 250 g/ha [6, 20]: 70%
pest or weed control at 500 g/ha [6, 20]: 80%
pest or weed control at 62 g/ha ([6]; pre-emergence, Preemergence, scale 0 to 100, 0 no effect, 100 complete control, read-out: Plant response rating, Crabgrass): 0%
pest or weed control at 125 g/ha [6, 21]: 0%
pest or weed control at 250 g/ha [6, 21]: 20%
pest or weed control at 500 g/ha [6, 21]: 60%
